Measurements: patent US7438931B2, “Methods and compositions for the treatment of angiogenic diseases” (The Regents of The University of Michigan, priority 1998, dated 2008)

Test: Storage stability of TM (bulk under argon, capsules)
Type: physicochemical
Settings: room temperature
Text: The bulk drug is therefore stored under argon.
TM was purchased in bulk lots suitable for human administration (Aldrich Chemical Company, Milwaukee, Wis.). […] At the time a prescription was written, the appropriate dose of TM was placed in gelatin capsules. Previously, it was shown by the inventors that TM dispensed in such capsules retained at least 90% of its potency for eight weeks (Brewer et al., 1991a). Thus, TM was dispensed to each patient in eight-week installments throughout the trial.

Substance: tetrathiomolybdate [TM]
- stability in capsules: stable in capsules for several months at room temperature
